Ends that are not written are not given here.
Key:
phospholipase C (PLC) = assay: PLC inhibition: capa-1-induced [Ca2+]i response in S2-capaR cells; type: cell-based, Drosophila; conditions: Fig. 1D
Description: (§1) Drosophila S2 cells, cultured under standard conditions were transiently transfected with the apoaequorin ORF [21] and a receptor ORF construct, and expression induced using CuSO4. Transfected S2 cells were harvested and incubated with 2.5 µM coelenterazine in the dark at RT for 1–2 h as previously described. 25,000 cells were then placed in 135 µl Schneider's medium supplemented with 10% FCS in a well of a white polystyrene 96-well plate (Berthold Technologies). Bioluminescence recordings were carried out using a Mithras LB940 automated 96-well plate reader (Berthold Technologies) and MikroWin software. 15 µl of each of different peptides were applied to final concentrations as required. At the end of each recording samples were disrupted by the addition of 100 µl lysis solution, and the [Ca^2+] concentrations calculated as previously described. For assays in Ca^2+-free medium, transfected cells were collected and pelleted after incubation with coelenterazine. Cell pellets were re-suspended in Ca^2+-free Schneider's medium (Invitrogen Inc.) without FCS and collected by centrifugation. The washing and pelleting procedure was repeated once more. Experiments were then carried out on 25,000 cells per sample as above. […]

capaR (CG14575) = target: T1, capaR (CG14575) (Drosophila melanogaster, UniProt Q8ITC7); assay: [Ca2+]i (aequorin) in capaR-transfected S2 cells; type: cell-based; conditions: for EC50: S2 cells expressing capaR and apoaequorin, maximal - background, mean ± S.E.M., N = 6 (Fig. 1C), read-out: EC50 for stimulated [Ca2+]i responses via capaR; for effect on [Ca2+]i via capaR: 10^−7 M, S2 cells (Fig. 3A)
T1 construct: The ORF of capaR was amplified from whole fly cDNA as template; expressed in transfected cells; host or cells: Drosophila S2 cells (pMT/V5-His TOPO, CuSO4 induction)
T1 sequence (Q8ITC7 1-477): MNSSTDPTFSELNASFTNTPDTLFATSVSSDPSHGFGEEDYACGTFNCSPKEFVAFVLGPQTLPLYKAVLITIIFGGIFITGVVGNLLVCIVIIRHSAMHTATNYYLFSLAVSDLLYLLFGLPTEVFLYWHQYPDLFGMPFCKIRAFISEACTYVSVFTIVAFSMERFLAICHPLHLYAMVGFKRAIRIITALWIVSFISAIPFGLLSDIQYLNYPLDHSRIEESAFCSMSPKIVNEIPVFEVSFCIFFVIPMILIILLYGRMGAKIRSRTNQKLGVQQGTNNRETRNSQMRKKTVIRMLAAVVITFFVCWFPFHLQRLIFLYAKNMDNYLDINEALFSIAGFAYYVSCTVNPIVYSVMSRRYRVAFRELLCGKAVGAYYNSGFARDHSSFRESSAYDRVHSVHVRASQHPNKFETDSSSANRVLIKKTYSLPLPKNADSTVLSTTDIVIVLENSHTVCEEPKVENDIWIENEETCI
Source text: The ORF of capaR was amplified from whole fly cDNA as template using the primers 5′-[…]-3′ and 5′-[…]-3′ and cloned into pMT/V5-His TOPO vector (Invitrogen). The eYFP ORF was fused in-frame at the C-terminus of the capaR using KpnI and ApaI sites and the tagged construct was cloned into the pMT/V5-His TOPO vector.
(§2) The capa peptides Drm-capa-1 (GANMGLYAFPRVamide), Drm-capa-2 (ASGLVAFPRVamide), Drm-PK-1 (TGPSASSGLWFGPRLamide), Drm-PK-2 (SVPFKPRLamide) and hugin gamma (hugg, pQLQSNGEPAYRVRTPRL-amide) were synthesised as C-terminally amidated peptides (Biomatik Corporation, Canada). Peptides were dissolved in distilled ACN/H2O to a concentration of 1 mM and then diluted to the required working concentration in Schneider's medium (Invitrogen Inc.). Human neuromedin U-25 was purchased from Sigma. Rabbit polyclonal antibody to porcine neuromedinU-8 was purchased from Progen biotechnik (Heidelberg, Germany). Rabbit capa precursor peptide used was described in [21] Rabbit anti-peptide antibody was raised against the capaR epitope (CQQGTNNRETRNSQM) by Genosphere Biotechnologies (Paris, France) and purified on a HiTrap NHS-activated HP column (Amersham Pharmacia Bio-tech; Buckinghamshire, UK) according to the manufacturer's instructions. Immunohistochemistry was carried out as described previously. Mouse anti-GFP primary antibody (Zymed) and the antiserum to neuromedinU-8 were all diluted 1∶1000 or, in the case of the pre-immune serum, the affinity-purified capaR antibody and the antiserum to the capa precursor peptide, 1∶500. Incubations in the primary antibodies were performed overnight. A FITC-conjugated affinity-purified goat anti-mouse antibody (Jackson Immunologicals) was used in a dilution of 1∶1,000 for visualization of the mouse monoclonal anti-GFP. A Texas red-conjugated affinity-purified goat anti-rabbit antibody (Jackson Immunologicals) was used at a dilution of 1∶1,000 for visualization of the rabbit capaR antiserum.
Drosophila S2 cells, cultured under standard conditions were transiently transfected with the apoaequorin ORF [21] and a receptor ORF construct, and expression induced using CuSO4. Transfected S2 cells were harvested and incubated with 2.5 µM coelenterazine in the dark at RT for 1–2 h as previously described. 25,000 cells were then placed in 135 µl Schneider's medium supplemented with 10% FCS in a well of a white polystyrene 96-well plate (Berthold Technologies). Bioluminescence recordings were carried out using a Mithras LB940 automated 96-well plate reader (Berthold Technologies) and MikroWin software. 15 µl of each of different peptides were applied to final concentrations as required. At the end of each recording samples were disrupted by the addition of 100 µl lysis solution, and the [Ca^2+] concentrations calculated as previously described. For assays in Ca^2+-free medium, transfected cells were collected and pelleted after incubation with coelenterazine. Cell pellets were re-suspended in Ca^2+-free Schneider's medium (Invitrogen Inc.) without FCS and collected by centrifugation. The washing and pelleting procedure was repeated once more. Experiments were then carried out on 25,000 cells per sample as above. To verify whether the observed calcium signal was linked to phospholipase C (PLC) activation, S2-capaR cells were preincubated with the PLC inhibitor U73122 at concentration of 10^−3 M to 10^−8 M for 10 min. Luminometry experiments were carried out on live, intact tubules expressing a targeted transgene for cytosolic-targeted apoaequorin in either principal or stellate cells as previously described, [22]. For in vivo tubule experiments, flies of the following genotypes were used: c42aeq, capaR-GAL4, UAS-capaR, UAS-capaR RNAi, UAS-NMUR 2 and the resulting progeny from GAL4>UAS crosses.

NMR 1 = test system: NMR 1; set-up: method as in earlier work; conditions: CHO cells; ref 39 (Fujii et al.); cited from earlier work
NMU receptor 2 (NMUR 2) = target: T2, NMU receptor 2 (NMUR 2) (Homo sapiens, UniProt Q9GZQ4); assay: [Ca2+]i (aequorin) in NMUR 2-transfected S2 cells; type: cell-based; conditions: 10^−7 M, S2 cells (Fig. 3B)
T2 construct: expressed in transfected cells; host or cells: Drosophila S2 cells (pMT/V5-His TOPO)
Description: as §2
as §1, with “more.” for “more. Experiments were then carried out on 25,000 cells per sample as above.”

CG8795 (hugin receptor) = assay: [Ca2+]i (aequorin) in CG8795-transfected S2 cells; type: cell-based, Drosophila; conditions: 10^−7 M, S2 cells (Fig. 3C)
Description: as §2, with “A Texas red-conjugated affinity-purified goat anti-rabbit antibody (Jackson Immunologicals) was used at a dilution of 1∶1,000 for visualization of the rabbit capaR antiserum.” left out
Drosophila S2 cells, cultured under standard conditions were transiently transfected with the apoaequorin ORF [21] and a receptor ORF construct, and expression induced using CuSO4. […] Bioluminescence recordings were carried out using a Mithras LB940 automated 96-well plate reader (Berthold Technologies) and MikroWin software. […] At the end of each recording samples were disrupted by the addition of 100 µl lysis solution, and the [Ca^2+] concentrations calculated as previously described. […]

Malpighian tubule = assay: Fluid transport by wild-type Malpighian tubules; set-up: species or system Drosophila melanogaster; conditions: 10^−7 M; mean ± SEM, N = 6–10, Student's t-test P<0.05 (Fig. 4A)
Description: Fluid transport assays were carried out as previously described using live, intact tubules dissected from 7-day-old adults with the following genotypes: wild-type Canton-S, c42-GAL4>UAS-capaR RNAi, actin-GAL4>UAS-NMUR 2. Fluid droplets were collected every 10 min, and the volumes of fluid were calculated. Basal rates of fluid secretion were monitored for 30 min, whereupon peptide was added, and the secretion rate was then recorded for a further 30 min.

[1] = target: T3, capa receptor (capaR, CG14575) expressed in S2 cells (D. melanogaster) (UniProt Q8ITC7)
T3 sequence: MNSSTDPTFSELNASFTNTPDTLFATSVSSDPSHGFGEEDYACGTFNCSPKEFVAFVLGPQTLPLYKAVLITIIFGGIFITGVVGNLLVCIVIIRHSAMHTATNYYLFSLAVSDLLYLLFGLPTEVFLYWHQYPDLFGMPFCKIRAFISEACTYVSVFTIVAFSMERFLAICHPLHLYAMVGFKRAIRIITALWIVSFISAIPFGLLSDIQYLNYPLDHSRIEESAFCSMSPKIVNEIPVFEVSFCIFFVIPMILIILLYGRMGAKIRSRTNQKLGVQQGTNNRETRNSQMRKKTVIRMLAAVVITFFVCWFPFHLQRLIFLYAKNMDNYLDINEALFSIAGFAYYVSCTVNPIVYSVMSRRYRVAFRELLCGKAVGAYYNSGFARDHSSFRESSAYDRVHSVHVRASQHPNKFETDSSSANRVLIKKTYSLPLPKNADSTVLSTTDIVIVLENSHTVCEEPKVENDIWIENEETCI

[2] = target: human neuromedin U receptor 2 (human) (UniProt Q9GZQ4)
[3] = target: T3, capa receptor (capaR, CG14575) expressed in S2 cells (D. melanogaster); remark: listed apart in the source

T2 sequence (Q9GZQ4 whole entry): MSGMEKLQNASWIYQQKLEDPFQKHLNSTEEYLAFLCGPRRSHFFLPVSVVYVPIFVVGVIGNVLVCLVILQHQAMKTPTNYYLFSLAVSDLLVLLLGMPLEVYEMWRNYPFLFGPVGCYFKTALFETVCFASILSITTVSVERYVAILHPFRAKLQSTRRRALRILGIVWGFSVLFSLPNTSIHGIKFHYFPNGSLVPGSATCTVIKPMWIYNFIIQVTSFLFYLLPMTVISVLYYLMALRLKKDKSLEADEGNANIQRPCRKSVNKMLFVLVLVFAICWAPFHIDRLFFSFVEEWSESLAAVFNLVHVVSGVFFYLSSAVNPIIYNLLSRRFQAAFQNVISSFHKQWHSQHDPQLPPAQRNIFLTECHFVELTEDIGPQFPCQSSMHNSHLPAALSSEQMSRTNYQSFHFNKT
human neuromedin U receptor 2 (human), sequence (Q9GZQ4 whole entry): as above

Row | Molecule | effect on [Ca2+]i via capaR (capaR (CG14575)) | effect on [Ca2+]i via NMUR 2 (NMU receptor 2 (NMUR 2)) | effect on [Ca2+]i via CG8795 (CG8795 (hugin receptor)) | fluid transport by wild-type tubules (Malpighian tubule) | further results
1 | COc1ccc2c(c1)CC[C@@H]1[C@@H]2CC[C@]2(C)[C@@H](NCCCCCCN3C(=O)C=CC3=O)CC[C@@H]12 [U73122] |  |  |  |  | inhibition of capa-1-induced [Ca2+]i response (phospholipase C (PLC)): inhibited by the widely-used PLC inhibitor (U73122) in a dose-dependent manner
2 | CSCC[C@H](NC(=O)[C@H](CC(N)=O)NC(=O)[C@H](C)NC(=O)CN)C(=O)NCC(=O)N[C@@H](CC(C)C)C(=O)N[C@@H](Cc1ccc(O)cc1)C(=O)N[C@@H](C)C(=O)N[C@@H](Cc1ccccc1)C(=O)N1CCC[C@H]1C(=O)N[C@@H](CCCNC(=N)N)C(=O)N[C@H](C(N)=O)C(C)C [capa-1] |  |  |  |  | EC50 (capaR (CG14575)): 3.06 nM
3 | CC(C)C[C@H](NC(=O)CNC(=O)[C@H](CO)NC(=O)[C@H](C)N)C(=O)N[C@H](C(=O)N[C@@H](C)C(=O)N[C@@H](Cc1ccccc1)C(=O)N1CCC[C@H]1C(=O)N[C@@H](CCCNC(=N)N)C(=O)N[C@H](C(N)=O)C(C)C)C(C)C [capa-2] |  |  |  |  | EC50 (capaR (CG14575)): 4.32 nM
4 | MNYLAFPRM-NH2 [SCPB] |  |  |  |  | agonistic activity to NMR 1 (NMR 1): significant agonistic activity
5 | SVPFKPRL-NH2 [Drm-PK-2, Drosophila pyrokinin, SVPFKPRLamide] | do not have effects on either capaR | do not have effects on either capaR (Fig. 3A) or NMUR 2 | stimulates increased [Ca^2+]i levels | not with Drm-PK-1, hugg, Drm-PK-2 | 
6 | TGPSASSGLWFGPRL-NH2 [Drm-PK-1, Drosophila pyrokinin, …amide] | do not have effects on either capaR | do not have effects on either capaR (Fig. 3A) or NMUR 2 | stimulates increased [Ca^2+]i levels | not with Drm-PK-1, hugg, Drm-PK-2 | 
7 | pQLQSNGEPAYRVRTPRL-amide [hugg, hugin gamma, p…-amide] | but not hugg nor Drm-PK-2, increases intracellular calcium ([Ca^2+]i) levels via capaR | increases [Ca^2+]i via NMUR 2 but to a reduced level compared to capa-1 | stimulates increased [Ca^2+]i levels | not with Drm-PK-1, hugg, Drm-PK-2 | 
8 | FRVDEEFQSPFASQSRGYFLFRPRN-NH2 [Human neuromedin U-25] |  |  |  |  | [Ca2+]i, dose-response to NMU-25; first of two values given 'respectively', probably capaR- and apoaequorin-co-transfected S2 cells [1]: 21.8 nM; [Ca2+]i, dose-response to NMU-25; second of two values given 'respectively', probably intact tubules expressing apoaequorin in principal cells (endogenous capaR) [1]: 27.1 nM; [Ca2+]i in S2 cells expressing NMUR 2 and apoaequorin, dose-response to NMU-25 [2]: 0.91 nM
9 | ASGLVAFPRV-NH2 [Drm-capa-2] |  |  |  |  | [Ca2+]i (aequorin luminescence) in S2 cells expressing capaR and apoaequorin, dose-response to capa-2 [3]: 4.32 nM
10 | GANMGLYAFPRV-NH2 [Drm-capa-1] |  |  |  |  | [Ca2+]i (aequorin luminescence) in S2 cells expressing capaR and apoaequorin, dose-response to capa-1 [3]: 3.06 nM

— paper PMC3256212, “Mechanism and Function of Drosophila capa GPCR: A Desiccation Stress-Responsive Receptor with Functional Homology to Human NeuromedinU Receptor” (PLoS ONE, 2012)
